Results: US10711000B2 (Fronthera U.S. Pharmaceuticals LLC, priority 2018, dated 2020)
Read-outs that look alike come from different tables or passages of the source.

Columns and labels:
Autotaxin [1] = molecular target: T1, Autotaxin (Rattus norvegicus, UniProt Q64610); assay: Pharmacodynamics: LPA 18:2 inhibition in plasma of SD rats after oral dose; settings: single oral dose, LPA18:2 inhibition vs plasma concentration of compound, read-out: In vivo rat IC50 (LPA 18:2) (converted)
T1 construct: from tissue; host or cells: SD rats in vivo; plasma sampled after a single oral dose
Description: The pharmacokinetics and pharmacodynamics of test compounds after a single oral dose were investigated in SD rats, Beagle dog and Cynomolgus monkey. SD Rats (200-250 g) were purchased from Beijing Vital River Laboratory Animal Technology Co., Ltd. Male Beagle Dog, 6-9 kg, were purchased from Beijing Mashall. Male Cynomolgus monkeys, 3-5 kg, were purchased from Suzhou Xishan Zhongke Drugs Research and Development Co., Ltd. Following arrival, the animals were acclimated for 7 days in individual cages maintained at ambient temperature, 34 to 68% relative humidity, and 12-h light/dark cycles. Just prior to dose administration the rats were fasted overnight with free access to water. Animals were given 10 mL/kg of formulated compound in 0.5% methylcellulose (MC) by oral gavage, and the animals were fed four hours after dosing. The animals were manually restrained at the designated time points (pre-dose, 0.5, 1, 3, 6, 9, 12, and 24 h post-dose) to collect blood. Approximately 120 μL of blood was collected via orbital sinus into K2EDTA tubes. The blood samples were centrifuged at 5000 rpm for 10 min at 4° C. to obtain plasma samples.
Autotaxin is a secreted phosphodiesterase that converts lysophosphatidylcholine (LPC) into lysophosphatidic acid (LPA), and LPA 18:2 formation was used to evaluate the efficacy of autotaxin inhibitors. Therefore, the LPA 18:2 formation in response to drug administration was analyzed in each time point to assess the pharmacodynamics of test compounds. To determine the LPA18:2 concentration in study plasma, a 10× calibration standard of LPA 18:2 were prepared by serial dilution in butyl alcohol: 20000, 10000, 5000, 2000, 1000, 500, 200, 100, 50, 20, and 10 ng/mL. 3 μL of calibration standard solution was added into 27.0 μL of blank plasma in 1.5-mL microcentrifuge tubes to generate 1× calibration standards. The 30.0 μL of standards or study plasma was added into 1.5-mL microcentrifuge tubes. 200 μL of butyl alcohol (containing 25.0 ng/mL LPA17:0 for internal control) was added into each 1.5-mL microcentrifuge tube containing study plasma or calibration standards. After vortexing for 1 minute and centrifuging at 10000 rpm for 10 min, 180 μL of supernatant was transferred into a 96-well plate and the LPA18:2 concentration in the plasma was quantitated using LC/MS/MS together with standards. Briefly, 8 μL of the solutions were injected for LC-MS/MS analysis using an ACQUITY UPLC BEH C18 column (2.1×50 mm, 1.7 μm) with mobile phase A [20 mM NH4OAC in water (0.1% FA)] and phase B [5 mM NH4OAC in water/0.2% FA in ACN=5:95]. Mass spectrometer parameters optimization for LPA18:2 were performed by infusing standard diluted at 1 μg/mL in butyl Alcohol directly in the ionization source, at a flow of 10 μL/min. Deprotonated molecular ion at m/z 433.2 ([M−H]−) for LPA18:2, and abundant product ion at m/z 152.8 for LPA18:2 were obtained. Quantitative data were acquired in multiple reaction monitoring (MRM) negative electrospray ionization mode
The percentage of LPA18:2 inhibition was plotted against the corresponding concentration of compound and the IC50 was calculated through non-linear regression fitting.

Autotaxin [2] = molecular target: T2, Autotaxin (Homo sapiens, UniProt Q13822); assay: LPA formation in pooled human plasma (ex vivo autotaxin inhibition); assay type: biochemical; settings: 2 hours incubation
T2 construct: from tissue; host or cells: pooled human plasma
Method in brief: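 Ex vivo: LPA 18:2 and 20:4 levels in compound-treated versus untreated pooled human plasma after 2 h incubation, measured by butanol extraction and negative-mode MRM LC/MS/MS against calibration standards. IC50 from non-linear fit of inhibition versus concentration.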

[3] = LPA 18:2 by LC/MS/MS, read-out: LPA formation (18:2) (IC50)
[4] = LPA 20:4 by LC/MS/MS, read-out: LPA formation (20:4) (IC50)

IC50 (Autotaxin [1]) [µM] | IC50 (Autotaxin [2]; [3]) [µM] | IC50 (Autotaxin [2]; [4]) [µM] | SMILES
0.0125 | ≤ 0.1 | ≤ 0.1 | CCn1nc2ncc(N3CC4(CN(C(=O)C5CCOCC5)C4)C3)cc2c1N(C)c1nc(-c2ccc(F)cc2)c(C#N)s1 [Compound 118, 2-((2-ethyl-5-(6-(tetrahydro-2H-pyran-4-carbonyl)-2,6-diazaspiro[3.3]heptan-2-yl)-2H-pyrazolo[3,4-b]pyridin-3-yl)(methyl)amino)-4-(4-fluorophenyl)thiazole-5-carbonitrile]
0.00864 | ≤ 0.1 | ≤ 0.1 | CCc1nn2cc(F)c(N3CCN(CC(=O)N4CC(O)C4)CC3)cc2c1N(C)c1nc(-c2ccc(F)cc2)c(C#N)s1 [Example 101, 2-[[2-ethyl-6-fluoro-5-[4-[2-(3-hydroxyazetidin-1-yl)-2-oxo-ethyl]piperazin-1-yl]pyrazolo[1,5-a]pyridin-3-yl]-methyl-amino]-4-(4-fluorophenyl)thiazole-5-carbonitrile]
0.00885 | ≤ 0.1 | ≤ 0.1 | CCc1nn2cc(F)c(N3CC4(CN(C(=O)[C@H]5CCOC5)C4)C3)cc2c1N(C)c1nc(-c2ccc(F)cc2)c(C#N)s1 [Example 102, 2-[[2-ethyl-6-fluoro-5-[2-[(3S)-tetrahydrofuran-3-carbonyl]-2,6-diazaspiro[3.3]heptan-6-yl]pyrazolo[1,5-a]pyridin-3-yl]-methyl-amino]-4-(4-fluorophenyl)thiazole-5-carbonitrile]
0.0483 | – | – | CCc1nc2c(C)cc(N3CCN(CC(=O)N4CC(O)C4)CC3)cn2c1N(C)c1nc(-c2ccc(F)cc2)c(C#N)s1 [GLPG1690]
